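All cell lines were grown in 96-well plates and treated with compound for 48 hours. Abbreviation: GI50, concentration required for 50% inhibition of growth.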 The source made the active and inactive calls. No stated cut-off is given here; in the data, active = GI50 up to about 1.1 µM and inactive = higher.

Test systems include OVCAR-8; BT-549; CCRF-CEM; TK-10; MDA-MB-231; OVCAR-5; NCI/ADR-RES; MDA-MB-435; A498; SR; RPMI-8226; NCI-H226; HOP-62; COLO 205; SNB-75; OVCAR-4; UACC-257; UO-31; LOX IMVI.
Holding throughout (experiment): NCI-60 cell line screen, 48 h

Take `CCOC(=O)C(C)c1nc2cc(F)c(N3CCOCC3)cc2[nH]c1=O` (stereo not drawn): the GI50 in the assay on OVCAR-8, in the assay on BT-549, in the assay on CCRF-CEM, in the assay with TK-10, in the assay on MDA-MB-231 and in the assay with OVCAR-5 was > 100 µM (inactive) each time. The GI50 in the assay on NCI/ADR-RES is > 100 µM (inactive); in the assay on MDA-MB-435, > 100 µM (inactive); with A498, > 100 µM (inactive); with SR, > 100 µM (inactive); in the assay with RPMI-8226, 83.6 µM (inactive); with NCI-H226, > 100 µM (inactive). Also, the GI50 in the assay on HOP-62, in the assay on COLO 205, with SNB-75, with OVCAR-4, in the assay on UACC-257 and in the assay on UO-31 was > 100 µM (inactive) each time.

Regarding `COc1c2c(c3c(c1CCC(=O)O)OC(C)(C)C=C3)OC(C)(C)C=C2`, the GI50 with OVCAR-8, with BT-549, in the assay on TK-10, with MDA-MB-231, in the assay on OVCAR-5 and in the assay with NCI/ADR-RES was > 100 µM (inactive) throughout. The GI50 is 28.9 µM (inactive) in the assay with MDA-MB-435; > 100 µM (inactive) with LOX IMVI; > 100 µM (inactive) in the assay with A498; > 100 µM (inactive) in the assay on SR; 48.4 µM (inactive) in the assay with RPMI-8226; 83.4 µM (inactive) in the assay on NCI-H226. The GI50 with HOP-62, in the assay on COLO 205, in the assay on SNB-75, in the assay on OVCAR-4, in the assay with UACC-257 and in the assay with UO-31 was > 100 µM (inactive) each time.

On to `COC1(OC)N=C(N)C2(C#N)C(c3ccccc3)NC3=C(CCC3)C12C#N` (stereo not drawn), for which the GI50 in the assay with OVCAR-8, with BT-549, with CCRF-CEM, in the assay with TK-10, with MDA-MB-231 and in the assay on OVCAR-5 was > 100 µM (inactive) throughout. Moreover, the GI50 in the assay with NCI/ADR-RES, in the assay with MDA-MB-435, in the assay on LOX IMVI, in the assay on A498, in the assay with SR and in the assay with RPMI-8226 was > 100 µM (inactive) throughout. Moreover, the GI50 in the assay with NCI-H226, with HOP-62, with COLO 205, in the assay with OVCAR-4, in the assay on UACC-257 and in the assay with UO-31 was > 100 µM (inactive) in each case.

Take `O=c1[nH][nH]c(=O)n1/N=C/c1ccccc1`: the GI50 in the assay with OVCAR-8, with BT-549, in the assay on CCRF-CEM, in the assay with TK-10, with MDA-MB-231 and with OVCAR-5 was > 100 µM (inactive) throughout. Also, the GI50 in the assay with NCI/ADR-RES, with MDA-MB-435, in the assay on LOX IMVI, in the assay with A498, with SR and with RPMI-8226 was > 100 µM (inactive) each time. Also, the GI50 in the assay on NCI-H226, in the assay on HOP-62, in the assay with COLO 205, in the assay with SNB-75, in the assay on UACC-257 and in the assay with UO-31 was > 100 µM (inactive) throughout.

`Brc1c(C#CCC(c2ccccc2)(c2ccccc2)c2ccccc2)ccc(C#CCC(c2ccccc2)(c2ccccc2)c2ccccc2)c1Br`: the GI50 with OVCAR-8, with BT-549, with CCRF-CEM, in the assay on TK-10, with MDA-MB-231 and in the assay with OVCAR-5 was > 100 µM (inactive) throughout. Further, the GI50 with NCI/ADR-RES, with MDA-MB-435, with A498, in the assay with SR, in the assay with RPMI-8226 and with NCI-H226 was > 100 µM (inactive) in each case. The GI50 with COLO 205, in the assay on SNB-75, in the assay with OVCAR-4, with UACC-257 and in the assay with UO-31 was > 100 µM (inactive) each time.

Turning to `CC(C)CCOC(=O)NC(Nc1ccc(F)cc1)(C(F)(F)F)C(F)(F)F`, the GI50 is 51.8 µM (inactive) with OVCAR-8; 9.75 µM (inactive) in the assay with BT-549; 19.5 µM (inactive) with CCRF-CEM; 29.7 µM (inactive) in the assay on TK-10; 7.91 µM (inactive) with MDA-MB-231; 97.3 µM (inactive) with OVCAR-5. Further, the GI50 was 52.6 µM (inactive) in the assay on NCI/ADR-RES; 13.7 µM (inactive) in the assay on MDA-MB-435; 40.9 µM (inactive) with LOX IMVI; 42.9 µM (inactive) in the assay with A498; 0.679 µM (active) with SR; 22.1 µM (inactive) in the assay on RPMI-8226. Further, the GI50 was > 100 µM (inactive) with NCI-H226; 37.2 µM (inactive) in the assay with HOP-62; 18.3 µM (inactive) in the assay with COLO 205; > 100 µM (inactive) with SNB-75; > 100 µM (inactive) in the assay with UACC-257; 10.7 µM (inactive) with UO-31.

`Nc1ccccc1CCN1CCN(CCCc2ccccc2)CC1`: the GI50 in the assay on OVCAR-8 is 49.5 µM (inactive); with BT-549, > 100 µM (inactive); with CCRF-CEM, 46.1 µM (inactive); in the assay on TK-10, 91.2 µM (inactive); in the assay on MDA-MB-231, 61.1 µM (inactive); in the assay with OVCAR-5, > 100 µM (inactive). In addition, the GI50 was 90.4 µM (inactive) with NCI/ADR-RES; 72.4 µM (inactive) in the assay with MDA-MB-435; 34.4 µM (inactive) in the assay on LOX IMVI; 74.5 µM (inactive) in the assay with A498; 25.7 µM (inactive) in the assay with SR; 27.8 µM (inactive) with RPMI-8226. The GI50 in the assay with NCI-H226 was 44.5 µM (inactive); in the assay on HOP-62 it was > 100 µM (inactive); in the assay with COLO 205 it was 21 µM (inactive); in the assay with OVCAR-4, 65.8 µM (inactive); with UACC-257 it was 32.5 µM (inactive); in the assay with UO-31, 27.3 µM (inactive).

As to `Cc1ccccc1C(=N)c1ccccc1Cc1cccc2ccccc12`, the GI50 is 32 µM (inactive) in the assay on OVCAR-8; 33.2 µM (inactive) in the assay on BT-549; 15.4 µM (inactive) in the assay on CCRF-CEM; 59.3 µM (inactive) in the assay with TK-10; 36.4 µM (inactive) with MDA-MB-231; 37.5 µM (inactive) with OVCAR-5. Moreover, the GI50 was 25.7 µM (inactive) in the assay with NCI/ADR-RES; 21.9 µM (inactive) in the assay on MDA-MB-435; 18.1 µM (inactive) in the assay on LOX IMVI; 30.8 µM (inactive) in the assay on A498; 15.9 µM (inactive) in the assay with SR; 7.43 µM (inactive) with RPMI-8226. The GI50 in the assay on NCI-H226 is 17.1 µM (inactive); with HOP-62, 19 µM (inactive); with COLO 205, 27.6 µM (inactive); with OVCAR-4, 28.4 µM (inactive); in the assay on UACC-257 it was 25.6 µM (inactive); in the assay on UO-31, 38.5 µM (inactive).
